Measurements from patent US10196381B2, “Benzimidazole-2-piperazine heterocyclic compound, pharmaceutical composition containing the same, preparation method and use thereof” (Shanghai Huilun Life Science & Technology Co., Ltd., priority 2013, dated 2019).

Molecular target: PARP-1 enzyme (Homo sapiens (Human), UniProt P09874)
Assay: PARP enzyme activity assay (HT Universal Chemiluminescent PARP Assay Kit, histone-coated wells)
Format: biochemical
Conditions: for inhibition at 0.03 µM: read-out: Inhibition (%) at 30 nM; for inhibition at 0.1 µM: read-out: Inhibition (%) at 100 nM
Procedure: PARP is an enzyme responsible for post-translational modification, which may be activated by means of DNA damage. The process catalyzed by PARP in vivo is mainly NAD-dependent poly(ADP-ribosyl)ation, in which the substrates are mainly some nuclear proteins including PARP, one example of which is histone. In the present invention, the PARP activity is assayed by determining the poly(ADP-ribosyl)ation degree of histone coated in a 96-well plate in the presence of NAD, and the PARP activity under the action of a PARP inhibitor is correspondingly assayed, thereby evaluating the degree of inhibition of the compounds on PARP activity. Poly(ADP-ribosyl)ation of nuclear proteins is a post-translational modification occurred in response to DNA damage. PARP is the abbreviation of poly(ADP-ribose)polymerase, which catalyzes the attachment of poly(ADP-ribose) to an adjacent nuclear protein in the presence of NAD, thus eliciting a mechanism of DNA repair through base excision repair pathway. The level of biotin-labeled ADP-ribose binding to histone can be detected by using the HT Universal Chemiluminescent PARP Assay Kit commercially available from Trevigen Corp. […] HT Universal Chemiluminescent PARP Assay Kit with Histone-coated Strip Wells, commercially available from Trevigen (US), Catalog #: 4676-096-K. […] 4. The PARP enzyme was carefully diluted with the 1×PARP buffer just before use, the diluted enzyme solution should be used as quickly as possible and the remaining solution should be discarded. […] 2. […] 1. […] 2. […] 4. […] After washing, equal volume of the PeroxyGlow A and B solutions were uniformly mixed, 100 μl of the solution was added to each well, and the chemiluminescent signals were recorded on a plate reader immediately. The readout of each well is converted into the percent inhibition. […] Note: the readout of the positive control well is designated as 100% enzyme activity; the readout of the negative control well is designated as 0% enzyme activity; and the activity X refers to the readout from respective concentration of each sample.

Sequence of PARP-1 enzyme (P09874 whole entry): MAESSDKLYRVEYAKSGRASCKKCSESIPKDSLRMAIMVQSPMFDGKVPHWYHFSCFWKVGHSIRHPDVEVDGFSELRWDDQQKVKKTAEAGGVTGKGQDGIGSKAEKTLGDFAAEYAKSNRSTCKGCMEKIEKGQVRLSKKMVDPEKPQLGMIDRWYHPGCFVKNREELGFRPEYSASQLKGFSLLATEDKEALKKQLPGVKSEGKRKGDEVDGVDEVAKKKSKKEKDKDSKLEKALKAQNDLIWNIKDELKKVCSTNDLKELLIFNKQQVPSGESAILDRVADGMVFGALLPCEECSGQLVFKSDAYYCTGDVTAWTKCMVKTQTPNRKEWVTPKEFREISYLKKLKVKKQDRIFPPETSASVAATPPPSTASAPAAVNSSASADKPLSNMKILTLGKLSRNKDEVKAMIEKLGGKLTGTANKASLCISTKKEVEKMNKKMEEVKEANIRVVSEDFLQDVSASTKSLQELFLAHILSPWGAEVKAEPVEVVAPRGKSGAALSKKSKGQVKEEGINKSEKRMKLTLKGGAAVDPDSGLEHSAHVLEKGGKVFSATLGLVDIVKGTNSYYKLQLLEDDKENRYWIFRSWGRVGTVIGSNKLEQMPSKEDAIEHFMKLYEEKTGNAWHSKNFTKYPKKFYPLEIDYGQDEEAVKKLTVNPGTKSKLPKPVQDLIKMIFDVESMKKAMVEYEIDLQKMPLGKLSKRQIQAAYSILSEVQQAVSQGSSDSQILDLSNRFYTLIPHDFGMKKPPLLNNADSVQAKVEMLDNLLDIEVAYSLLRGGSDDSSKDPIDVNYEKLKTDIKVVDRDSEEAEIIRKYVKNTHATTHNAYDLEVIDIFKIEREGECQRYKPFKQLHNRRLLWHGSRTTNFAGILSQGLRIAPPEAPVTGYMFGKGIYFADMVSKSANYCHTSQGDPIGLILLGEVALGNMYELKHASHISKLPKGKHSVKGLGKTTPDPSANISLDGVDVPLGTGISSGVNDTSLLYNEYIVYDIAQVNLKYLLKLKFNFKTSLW

| Structure (SMILES) | inhibition at 0.03 µM [%] | inhibition at 0.1 µM [%] |
| --- | --- | --- |
| NC(=O)c1cccc2[nH]c(N3CCN(c4ccncn4)CC3)nc12 [Compound (7), 2-(4-(pyrimidin-4-yl)piperazin-1-yl)-1H-benzimidazole-4-carboxamide] | 73 | 85 |
| N#Cc1cnc(N2CCN(c3nc4c(C(N)=O)cc(F)cc4[nH]3)CC2)cn1 [Compound (37), 2-(4-(5-cyanopyrazin-2-yl)piperazin-1-yl)-6-fluoro-1H-benzimidazole-4-carboxamide] | 87 | 98 |
| NC(=O)c1cc(F)cc2[nH]c(N3CCN(c4ccc(C(F)(F)F)nc4)CC3)nc12 [Compound (32), 6-fluoro-2-(4-(6-trifluoromethylpyridine-3-yl)piperazin-1-yl)-1H-benzimidazole-4-carboxamide] | 66 | 84 |
| NC(=O)c1ccc(N2CCN(c3nc4c(C(N)=O)cccc4[nH]3)CC2)nc1 [Compound (12), 2-(4-(5-carbamoylpyridin-2-yl)piperazin-1-yl)-1H-benzimidazole-4-carboxamide] | 57 | 77 |
| CC(=O)Nc1cnc(N2CCN(c3nc4c(C(N)=O)cccc4[nH]3)CC2)nc1 [Compound (4), 2-(4-(5-acetamidopyrimidin-2-yl)piperazin-1-yl)-1H-benzimidazole-4-carboxamide] | 27 | 53 |
| N#Cc1ncc(N2CCN(c3nc4c(C(N)=O)cc(F)cc4[nH]3)CC2)cn1 [Compound (38), 2-(4-(2-cyanopyrimidin-5-yl)piperazin-1-yl)-6-fluoro-1H-benzimidazole-4-carboxamide] | 84 | 95 |
| NC(=O)c1cc(F)cc2[nH]c(N3CCN(c4cnc(C(=O)N5CCCC5)cn4)CC3)nc12 [Compound (29), 6-fluoro-2-(4-(5-(pyrrolin-1-acyl)pyrazin-2-yl)piperazin-1-yl)-1H-benzimidazole-4-carboxamide] | 71 | 88 |
| NC(=O)c1cc(F)cc2[nH]c(N3CCN(c4ccc(C(F)(F)F)cn4)CC3)nc12 [Compound (21), 6-fluoro-2-(4-(5-trifluoromethylpyridin-2-yl)piperazin-1-yl)-1H-benzimidazole-4-carboxamide] | 32 | 60 |
| NC(=O)c1cc(F)cc2[nH]c(N3CCN(c4cnc(C(F)(F)F)nc4)CC3)nc12 [Compound (33), 6-fluoro-2-(4-(2-trifluoromethylpyrimidin-5-yl)piperazin-1-yl)-1H-benzimidazole-4-carboxamide] | 88 | 98 |
| NC(=O)c1cccc2[nH]c(N3CCN(c4ncccn4)CC3)nc12 [Compound (1), 2-(4-(pyrimidin-2-yl)piperazin-1-yl)-1H-benzimidazole-4-carboxamide] | 59 | 76 |
| NC(=O)c1cc(F)cc2[nH]c(N3CCN(c4ccncn4)CC3)nc12 [Compound (16), 6-fluoro-2-(4-(pyrimidin-4-yl)piperazin-1-yl)-1H-benzimidazole-4-carboxamide] | 78 | 91 |
| NC(=O)c1cccc2[nH]c(N3CCN(c4ncc(F)cn4)CC3)nc12 [Compound (2), 2-(4-(5-fluoropyrimidin-2-yl)piperazin-1-yl)-1H-benzimidazole-4-carboxamide] | 42 | 69 |
| CN(C)C(=O)c1cnc(N2CCN(c3nc4c(C(N)=O)cc(F)cc4[nH]3)CC2)cn1 [Compound (36), 2-(4-(5-dimethylcarbamoylpyrazin-2-yl)piperazin-1-yl)-6-fluoro-1H-benzimidazole-4-carboxamide] | 83 | 92 |
| NC(=O)c1cc(F)cc2[nH]c(N3CCN(c4cnc(C(=O)N5CCOCC5)cn4)CC3)nc12 [Compound (30), 6-fluoro-2-(4-(5-(morpholin-4-acyl)pyrazin-2-yl)piperazin-1-yl)-1H-benzimidazole-4-carboxamide] | 78 | 92 |
| CNC(=O)c1ncc(N2CCN(c3nc4c(C(N)=O)cc(F)cc4[nH]3)CC2)cn1 [Compound (39)] | 78 | 92 |
| NC(=O)c1cccc2[nH]c(N3CCN(c4cc(C(F)(F)F)ncn4)CC3)nc12 [Compound (10), 2-(4-(6-trifluoromethylpyrimidin-4-yl)piperazin-1-yl)-1H-benzimidazole-4-carboxamide] | 38 | 64 |
| CC(C)NC(=O)c1cnc(N2CCN(c3nc4c(C(N)=O)cc(F)cc4[nH]3)CC2)cn1 [Compound (27), 6-fluoro-2-(4-(5-isopropylcarbamoylpyrazin-2-yl)piperazin-1-yl)-1H-benzimidazole-4-carboxamide] | 66 | 86 |
| CN(C)C(=O)c1ccc(N2CCN(c3nc4c(C(N)=O)cc(F)cc4[nH]3)CC2)nc1 [Compound (18), 2-(4-(5-(dimethylcarbamoyl)pyridin-2-yl)piperazin-1-yl)-6-fluoro-1H-benzimidazole-4-carboxamide] | 56 | 77 |
| NC(=O)c1cc(F)cc2[nH]c(N3CCN(c4cnc(C(F)(F)F)cn4)CC3)nc12 [Compound (35), 6-fluoro-2-(4-(5-trifluoromethylpyrazin-2-yl)piperazin-1-yl)-1H-benzimidazole-4-carboxamide] | 76 | 91 |
| N#Cc1cnc(N2CCN(c3nc4c(C(N)=O)cccc4[nH]3)CC2)nc1 [Compound (14), 2-(4-(5-cyanopyrimidin-2-yl)piperazin-1-yl)-1H-benzimidazole-4-carboxamide] | 57 | 78 |
| CNC(=O)c1ccc(N2CCN(c3nc4c(C(N)=O)cccc4[nH]3)CC2)nc1 [Compound (11), 2-(4-(5-methylcarbamoylpyridin-2-yl)piperazin-1-yl)-1H-benzimidazole-4-carboxamide] | 59 | 78 |
| CCNc1cccnc1N1CCN(c2nc3c(C(N)=O)cccc3[nH]2)CC1 [Compound (8), 2-(4-(3-ethylaminopyridin-2-yl)piperazin-1-yl)-1H-benzimidazole-4-carboxamide] | 8 | 16 |
| CCNC(=O)c1ncc(N2CCN(c3nc4c(C(N)=O)cc(F)cc4[nH]3)CC2)cn1 [Compound (40), 2-(4-(2-ethylcarbamoylpyrimidin-5-yl)piperazin-1-yl)-6-fluoro-1H-benzimidazole-4-carboxamide] | 77 | 93 |
| NC(=O)c1cc(F)cc2[nH]c(N3CCN(c4ncc(C(F)(F)F)cn4)CC3)nc12 [Compound (34), 6-fluoro-2-(4-(5-trifluoromethylpyrimidin-2-yl)piperazin-1-yl)-1H-benzimidazole-4-carboxamide] | 36 | 60 |
| NC(=O)c1cccc2[nH]c(N3CCN(c4ccnc(C(F)(F)F)c4)CC3)nc12 [Compound (13), 2-(4-(2-trifluoromethylpyridin-4-yl)piperazin-1-yl)-1H-benzimidazole-4-carboxamide] | 43 | 69 |
